Laboratory results reported in patent US20240426807A1, “SCREENING SYSTEM” (Givaudan SA, priority 2021, published 2024).

Assays:
Assay type in all cases: cell-based
OR5A2 (clone 3) = target: T1, OR5A2 (clone 3) (Homo sapiens, UniProt Q8NGI9); test: Ligand-induced puromycin resistance of isolated clone 3 containing OR5A2; conditions: clone 3 (OR5A2), 11 concentrations of puromycin, co-treated with olfactory ligands
T1 construct: expressed in transfected cells; clone 3 selected with musk ambrette and puromycin
T1 sequence (Q8NGI9 with tags, fused parts or gaps): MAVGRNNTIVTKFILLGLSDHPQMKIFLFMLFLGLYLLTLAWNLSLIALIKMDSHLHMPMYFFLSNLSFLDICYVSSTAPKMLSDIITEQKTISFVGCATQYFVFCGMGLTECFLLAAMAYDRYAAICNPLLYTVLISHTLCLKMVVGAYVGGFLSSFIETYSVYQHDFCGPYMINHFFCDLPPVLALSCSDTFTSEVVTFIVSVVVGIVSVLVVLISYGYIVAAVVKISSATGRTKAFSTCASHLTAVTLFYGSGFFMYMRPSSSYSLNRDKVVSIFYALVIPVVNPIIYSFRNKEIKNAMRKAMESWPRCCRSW

[1] = target: T2, pool of cells with OR5A1, OR5A2, OR5AN1, OR6Y1, OR10G4, OR10G7 or OR10G9 (Homo sapiens, UniProt Q8NGN6); test: Selection of cognate-receptor cells from a pool of OR-expressing cells with the target ligand and puromycin; conditions: 1 μM eugenol, puromycin 1 μg/ml, pool of 7 OR transfections
T2 construct: expressed in transfected cells; host or cells: HEK293T stably expressing RTP1S and RTP2; 7 separate transfections pooled
T2 sequence (Q8NGN6 1-311): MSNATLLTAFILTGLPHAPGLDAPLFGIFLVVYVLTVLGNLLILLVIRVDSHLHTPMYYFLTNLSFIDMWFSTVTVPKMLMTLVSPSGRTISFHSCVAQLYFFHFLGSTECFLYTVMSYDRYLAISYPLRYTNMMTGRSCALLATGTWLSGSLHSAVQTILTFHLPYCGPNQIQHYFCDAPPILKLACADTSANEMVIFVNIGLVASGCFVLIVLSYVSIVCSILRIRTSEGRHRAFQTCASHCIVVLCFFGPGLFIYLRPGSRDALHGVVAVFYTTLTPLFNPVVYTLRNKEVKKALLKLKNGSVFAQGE
Protocol: (§1) For many ligands the cognate OR receptors are not known (“orphan receptors”), or it is unknown among a pool of receptors, which one has the best affinity for a ligand of interest, e.g. a perfumery note of particular interest. Thus, the ligand-induced selection pressure can be used to enrich a specific OR-expressing cell from a pool of OR-expressing cells in the presence of a ligand of interest. HEK293T cells stably expressing RTP1S and RTP2 were seeded into 7 wells of 6-well plates at 330,000 cells/well.
(§2) The next day, the cells of each well were transfected with 2 μg of a PvuI-linearized pGL4.29-CRE-Puro-Hygro-OR construct harboring one of the receptors OR5A1 (NCBI Genbank Gene ID: 219982), OR5A2 (NCBI Genbank Gene ID: 219981), OR5AN1 NCBI Genbank Gene ID: 390195, SEQ ID NO: 70), OR6Y1 (NCBI Genbank Gene ID: 391112), OR10G4 (NCBI Genbank Gene ID: 390264, SEQ ID NO: 72), OR10G7 (NCBI Genbank Gene ID: 390265, SEQ ID NO: 71), or OR10G9 (NCBI Genbank Gene ID: 219870). 24 h after transfection, the cells of all 7 transfections were harvested and pooled. 350 cells of this pool of cells with different OR genes inserted were then seeded into each well of seven 96-well plates.
(§3) 3 days later, cells were stimulated with ligands for either OR5AN1 (10 μM musk ketone), OR10G7 (1 μM eugenol), or OR10G4 (100 μM vanitrope). One plate was treated with DMSO only. 6h after the addition of the OR ligands, puromycin was added to each plate at a final concentration of 1 μg/ml. On every day during the following week, the medium on all plates was replaced with fresh medium containing the corresponding ligand and puromycin. The plates were then searched for wells containing only a single colony of puromycin-resistant cells. The cells of those colonies were transferred to larger plates and grown until they had multiplied to about 8 Mio cells. The genomic DNA of 2 Mio cells of each clone were isolated using the Puregene kit according to the manufacturer's protocol. […]

[2] = target: T3, pool of cells with OR5A1, OR5A2, OR5AN1, OR6Y1, OR10G4, OR10G7 or OR10G9 (Homo sapiens, UniProt Q8NGI8); test: as above; conditions: 10 μM musk ketone, puromycin 1 μg/ml, pool of 7 OR transfections
T3 construct: expressed in transfected cells; host or cells: HEK293T stably expressing RTP1S and RTP2; 7 separate transfections pooled
T3 sequence (Q8NGI8 1-311): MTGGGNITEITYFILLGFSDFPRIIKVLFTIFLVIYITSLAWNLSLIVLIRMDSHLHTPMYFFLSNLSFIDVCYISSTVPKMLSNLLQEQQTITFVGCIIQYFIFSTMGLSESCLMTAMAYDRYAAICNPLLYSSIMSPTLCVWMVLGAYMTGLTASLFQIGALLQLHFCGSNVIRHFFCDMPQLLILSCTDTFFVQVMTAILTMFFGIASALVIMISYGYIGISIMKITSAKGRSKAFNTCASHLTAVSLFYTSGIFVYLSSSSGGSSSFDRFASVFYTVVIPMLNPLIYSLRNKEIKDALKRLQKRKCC
Protocol: as §1, §2, §3

| Structure (SMILES) | puromycin resistance of clone 3 in presence of odorant (OR5A2 (clone 3)) | clones selected with the ligand that contained OR10G7 [1] | clones selected with the ligand that contained OR5AN1 [2] [clones] |
| --- | --- | --- | --- |
| C=CCc1ccc(O)c(OC)c1 [eugenol] | no increased resistance | 8 out of 8 |  |
| CC(=O)c1c(C)c([N+](=O)[O-])c(C(C)(C)C)c([N+](=O)[O-])c1C [musk ketone] |  |  | 9 |
